Data: patent US8940779B2, “Microbicidal composition” (Rohm and Haas Company, priority 2007, dated 2015)
Values joined by “and” are separate entries in the source; they are usually repeats but may differ in a detail not shown here. Equal values may be shown once. Read-outs that look alike come from different tables or passages of the source. Blank lines part the entries; values can stand above or below the compound they belong to.

Key:
Format in all cases: cell-based
[1] = tested on: Candida albicans (C. albicans, ATCC 10231); assay: Microtiter plate MIC synergy test (Kull synergy index), yeast; details: for MIC: Candida albicans, ATCC10231; for Ca, first component alone (QA, MIC) / Cb, MBIT alone (QB, MIC): C. albicans; for Ca, first component alone (QA, MIC): component acting alone; for Cb, MBIT alone (QB, MIC): MBIT acting alone
Description: (§1) One measure of synergism is the industrially accepted method described by Kull, F. C.; Eisman, P. C.; Sylwestrowicz, H. D. and Mayer, R. L., in Applied Microbiology 9:538-541 (1961), using the ratio determined by the formula: Qa/QA+Qb/QB=Synergy Index (“SI”) wherein: • QA=concentration of compound A (first component) in ppm, acting alone, which produced an end point (MIC of Compound A). • Qa=concentration of compound A in ppm, in the mixture, which produced an end point. • QB=concentration of compound B (second component) in ppm, acting alone, which produced an end point (MIC of Compound B). • Qb=concentration of compound B in ppm, in the mixture, which produced an end point.
(§2) When the sum of Qa/QA and Qb/QB is greater than one, antagonism is indicated. […] The lower the SI, the greater the synergy shown by that particular mixture. The minimum inhibitory concentration (MIC) of a microbicide is the lowest concentration tested under a specific set of conditions that prevents the growth of added microorganisms.
(§3) Synergy tests were conducted using standard microtiter plate assays with media designed for optimal growth of the test microorganism. Minimal salt medium supplemented with 0.2% glucose and 0.1% yeast extract (M9GY medium) was used for testing bacteria; Potato Dextrose Broth (PDB medium) was used for testing yeast and mold. In this method, a wide range of combinations of microbicides was tested by conducting high resolution MIC assays in the presence of various concentrations of MBIT. High resolution MICs were determined by adding varying amounts of microbicide to one column of a microtitre plate and doing subsequent […] dilutions using an automated liquid handling system to obtain a series of endpoints ranging from 2 ppm to 10,000 ppm active ingredient.
(§4) The synergy of the combinations of the present invention was determined against a bacterium, Escherichia coli (E. coli—ATCC #8739), a yeast, Candida albicans (C. albicans—ATCC 10231), and a mold, Aspergillus niger (A. niger—ATCC 16404). The bacteria were used at a concentration of about 5×10^6 bacteria per mL and the yeast and mold at 5×10^5 fungi per mL. These microorganisms are representative of natural contaminants in many consumer and industrial applications. […] (yeast and mold) or 30° C. (bacteria).
(§5) In each test, Second Component (B) was MBIT and the First Component (A) was the other commercial microbicide.

[2] = tested on: Ps. aeruginosa ATCC#9027; assay: Microtiter plate MIC synergy test (Kull synergy index), bacterium; details: for MIC: Pseudomonas aeruginosa, ATCC9027; for Ca, first component alone (QA, MIC) / Cb, MBIT alone (QB, MIC): Ps. aeruginosa; for Ca, first component alone (QA, MIC): component acting alone; for Cb, MBIT alone (QB, MIC): MBIT acting alone
[3] = tested on: S. aureus ATCC#6538; assay: as above; details: for MIC: Staphylococcus aureus, ATCC6538; for Ca, first component alone (QA, MIC) / Cb, MBIT alone (QB, MIC): S. aureus; for Ca, first component alone (QA, MIC): component acting alone; for Cb, MBIT alone (QB, MIC): MBIT acting alone
[4] = tested on: Aspergillus niger (A. niger, ATCC 16404); assay: Microtiter plate MIC synergy test (Kull synergy index), mold; details: for MIC: Aspergillus niger; for Ca, first component alone (QA, MIC): A. niger, component acting alone
Description: as §1, §2, §3, §4, §5

SMILES: CC(C)(C)C(O)(CCc1ccc(Cl)cc1)Cn1cncn1 (stereo not shown) [tebuconazole]
MIC ([1]; C. albicans ATCC # 10231, contact time 48 hrs, read-out: Ca - ppm AI of Tebuconazole (MIC end-point; alone QA or in the mixture Qa)): 110 µg/mL
MIC ([1]; C. albicans ATCC # 10231, contact time 72 hrs, read-out: Ca - ppm AI of Tebuconazole (MIC end-point; alone QA or in the mixture Qa)): 110 µg/mL
MIC ([2]; Ps. aeruginosa ATCC#9027, contact time 24 hrs, read-out: Ca - ppm AI of Tebuconazole (MIC end-point; alone QA or in the mixture Qa)): 875 µg/mL
MIC ([2]; Ps. aeruginosa ATCC#9027, contact time 48 hrs, read-out: Ca - ppm AI of Tebuconazole (MIC end-point; alone QA or in the mixture Qa)): 1100 µg/mL
MIC ([3]; S. aureus ATCC#6538, contact time 24 hrs, read-out: Ca - ppm AI of Tebuconazole (MIC end-point; alone QA or in the mixture Qa)): 300 µg/mL
MIC ([3]; S. aureus ATCC#6538, contact time 48 hrs, read-out: Ca - ppm AI of Tebuconazole (MIC end-point; alone QA or in the mixture Qa)): 425 µg/mL
MIC ([4]; ATCC16404, 72 h, A. niger ATCC # 16404, contact time 3 days, read-out: Ca - ppm AI of Tebuconazole (MIC end-point; alone QA or in the mixture Qa)): 4.25 µg/mL
MIC ([4]; ATCC16404, 168 h, A. niger ATCC # 16404, contact time 7 days, read-out: Ca - ppm AI of Tebuconazole (MIC end-point; alone QA or in the mixture Qa)): 11 µg/mL

Ca, first component alone (QA, MIC) ([1]; contact time 48 hrs): 44 ppm AI
Ca, first component alone (QA, MIC) ([1]; contact time 72 hrs): >44 ppm AI
Ca, first component alone (QA, MIC) ([2]; contact time 24 hrs): 4.25 ppm AI
Ca, first component alone (QA, MIC) ([2]; contact time 48 hrs): 5.25 ppm AI
Ca, first component alone (QA, MIC) ([3]; contact time 48 hrs): 8.5 ppm AI
Ca, first component alone (QA, MIC) ([4]; contact time 3 days): 42.5 ppm AI
Ca, first component alone (QA, MIC) ([4]; contact time 7 days): 200 ppm AI
SMILES: N#CC(Br)(Br)C(N)=O [DBNPA, 2,2-Dibromo-3-nitrilopropionamide]

SMILES: C=O [HCHO, Formaldehyde]
Ca, first component alone (QA, MIC) ([1]; contact time 48 hrs): 425 ppm AI
Ca, first component alone (QA, MIC) ([1]; contact time 72 hrs): 525 ppm AI
Ca, first component alone (QA, MIC) ([2]; contact time 24 hrs): 15 ppm AI
Ca, first component alone (QA, MIC) ([2]; contact time 48 hrs): 26.25 ppm AI
Ca, first component alone (QA, MIC) ([3]; contact time 24 hrs): 30 ppm AI
Ca, first component alone (QA, MIC) ([3]; contact time 48 hrs): 30 ppm AI
Ca, first component alone (QA, MIC) ([4]; contact time 3 days): 200 ppm AI
Ca, first component alone (QA, MIC) ([4]; contact time 7 days): 425 ppm AI

SMILES: CCCC1COC(Cn2cncn2)(c2ccc(Cl)cc2Cl)O1 (stereo not shown) [propiconazole]
MIC ([1]; C. albicans ATCC # 10231, contact time 48 hrs, read-out: Ca - ppm AI of Propiconazole (MIC end-point; alone QA or in the mixture Qa)): 525 µg/mL
MIC ([1]; C. albicans ATCC # 10231, contact time 72 hrs, read-out: Ca - ppm AI of Propiconazole (MIC end-point; alone QA or in the mixture Qa)): 525 µg/mL
MIC ([2]; Ps. aeruginosa ATCC#9027, contact time 24 hrs, read-out: Ca - ppm AI of Propiconazole (MIC end-point; alone QA or in the mixture Qa)): 875 µg/mL
MIC ([2]; Ps. aeruginosa ATCC#9027, contact time 48 hrs, read-out: Ca - ppm AI of Propiconazole (MIC end-point; alone QA or in the mixture Qa)): 875 µg/mL
MIC ([3]; S. aureus ATCC#6538, contact time 24 hrs, read-out: Ca - ppm AI of Propiconazole (MIC end-point; alone QA or in the mixture Qa)): 1100 µg/mL
MIC ([3]; S. aureus ATCC#6538, contact time 48 hrs, read-out: Ca - ppm AI of Propiconazole (MIC end-point; alone QA or in the mixture Qa)): 1100 µg/mL
MIC ([4]; ATCC16404, 72 h, A. niger ATCC # 16404, contact time 3 days, read-out: Ca - ppm AI of Propiconazole (MIC end-point; alone QA or in the mixture Qa)): 52.5 µg/mL
MIC ([4]; ATCC16404, 168 h, A. niger ATCC # 16404, contact time 7 days, read-out: Ca - ppm AI of Propiconazole (MIC end-point; alone QA or in the mixture Qa)): 87.5 µg/mL

SMILES: CCCCCCCCn1sccc1=O [OIT, 2-N-octyl-4-isothiazolin-3-one]
Ca, first component alone (QA, MIC) ([1]; contact time 48 hrs): 3.25 ppm AI
Ca, first component alone (QA, MIC) ([1]; contact time 72 hrs): 3.25 ppm AI
Ca, first component alone (QA, MIC) ([2]; contact time 24 hrs): 650 ppm AI
Ca, first component alone (QA, MIC) ([2]; contact time 48 hrs): 650 ppm AI
Ca, first component alone (QA, MIC) ([3]; contact time 24 hrs): 30 ppm AI
Ca, first component alone (QA, MIC) ([3]; contact time 48 hrs): 200 ppm AI
Ca, first component alone (QA, MIC) ([4]; contact time 3 days): 0.65 ppm AI
Ca, first component alone (QA, MIC) ([4]; contact time 7 days): 8.75 ppm AI

SMILES: Cn1sc2ccccc2c1=O [MBIT, N-methyl-1,2-benzisothiazolin-3-one]
Cb - ppm AI of MBIT (MIC end-point; alone QB or in the mixture Qb) ([1]; C. albicans ATCC # 10231, contact time 48 hrs, Table 5): 30 ppm
Cb - ppm AI of MBIT (MIC end-point; alone QB or in the mixture Qb) ([1]; C. albicans ATCC # 10231, contact time 48 hrs, Table 6): 30 ppm
Cb - ppm AI of MBIT (MIC end-point; alone QB or in the mixture Qb) ([1]; C. albicans ATCC # 10231, contact time 72 hrs, Table 5): 30 ppm
Cb - ppm AI of MBIT (MIC end-point; alone QB or in the mixture Qb) ([1]; C. albicans ATCC # 10231, contact time 72 hrs, Table 6): 30 ppm
Cb, MBIT alone (QB, MIC) ([1]; contact time 48 hrs): 30 ppm AI
Cb, MBIT alone (QB, MIC) ([1]; contact time 72 hrs): 30 ppm AI
Cb - ppm AI of MBIT (MIC end-point; alone QB or in the mixture Qb) ([2]; Ps. Aeruginosa ATCC#9027, contact time 24 hrs, Table 5): 100 ppm
Cb - ppm AI of MBIT (MIC end-point; alone QB or in the mixture Qb) ([2]; Ps. Aeruginosa ATCC#9027, contact time 48 hrs, Table 5): 175 ppm
Cb - ppm AI of MBIT (MIC end-point; alone QB or in the mixture Qb) ([2]; Ps. aeruginosa ATCC#9027, contact time 24 hrs, Table 6): 100 ppm
Cb - ppm AI of MBIT (MIC end-point; alone QB or in the mixture Qb) ([2]; Ps. aeruginosa ATCC#9027, contact time 48 hrs, Table 6): 175 ppm
Cb, MBIT alone (QB, MIC) ([2]; contact time 24 hrs): 100 ppm AI
Cb, MBIT alone (QB, MIC) ([2]; contact time 48 hrs): 175 ppm AI
Cb - ppm AI of MBIT (MIC end-point; alone QB or in the mixture Qb) ([3]; S. aureus ATCC#6538, contact time 24 hrs, Table 5): 30 ppm
Cb - ppm AI of MBIT (MIC end-point; alone QB or in the mixture Qb) ([3]; S. aureus ATCC#6538, contact time 24 hrs, Table 6): 30 ppm
Cb - ppm AI of MBIT (MIC end-point; alone QB or in the mixture Qb) ([3]; S. aureus ATCC#6538, contact time 48 hrs, Table 5): 60 ppm
Cb - ppm AI of MBIT (MIC end-point; alone QB or in the mixture Qb) ([3]; S. aureus ATCC#6538, contact time 48 hrs, Table 6): 60 ppm
Cb, MBIT alone (QB, MIC) ([3]; contact time 24 hrs): 60 ppm AI and 30 ppm AI
Cb, MBIT alone (QB, MIC) ([3]; contact time 48 hrs): 60 ppm AI
Cb - ppm AI of MBIT (MIC end-point; alone QB or in the mixture Qb) ([4]; A. niger ATCC # 16404, contact time 3 days, Table 5): 37.5 ppm
Cb - ppm AI of MBIT (MIC end-point; alone QB or in the mixture Qb) ([4]; A. niger ATCC # 16404, contact time 3 days, Table 6): 37.5 ppm
Cb - ppm AI of MBIT (MIC end-point; alone QB or in the mixture Qb) ([4]; A. niger ATCC # 16404, contact time 7 days, Table 5): 150 ppm
Cb - ppm AI of MBIT (MIC end-point; alone QB or in the mixture Qb) ([4]; A. niger ATCC # 16404, contact time 7 days, Table 6): 150 ppm
